Source: ChEMBL document CHEMBL1131284, “Hydroxamate-based inhibitors of low affinity IgE receptor (CD23) processing” (Bioorg Med Chem Lett, 1998)

Each compound was assayed against T1, Interstitial collagenase (Homo sapiens, UniProt P03956) (assay: Inhibitory activity towards human recombinant fibroblast collagenase).
T1 sequence (P03956 whole entry): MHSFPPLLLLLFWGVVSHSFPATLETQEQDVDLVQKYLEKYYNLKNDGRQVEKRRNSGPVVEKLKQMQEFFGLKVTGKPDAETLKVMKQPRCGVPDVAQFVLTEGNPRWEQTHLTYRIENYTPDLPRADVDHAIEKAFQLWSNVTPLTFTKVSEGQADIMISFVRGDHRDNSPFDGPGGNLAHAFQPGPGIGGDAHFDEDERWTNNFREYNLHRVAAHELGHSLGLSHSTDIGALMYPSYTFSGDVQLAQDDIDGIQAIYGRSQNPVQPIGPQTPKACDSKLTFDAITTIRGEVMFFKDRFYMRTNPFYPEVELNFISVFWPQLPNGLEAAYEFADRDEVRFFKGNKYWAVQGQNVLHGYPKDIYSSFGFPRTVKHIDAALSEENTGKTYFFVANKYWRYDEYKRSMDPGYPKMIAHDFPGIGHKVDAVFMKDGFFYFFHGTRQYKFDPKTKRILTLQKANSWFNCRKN
In the case of `O=C(C[C@@H](CCC1CCCCC1)C(=O)N[C@@H](Cc1ccccc1)C(=O)NCc1ccccc1)NO`, the IC50 is reported as > 10 µM. `CN(C)C[C@H](CC(=O)NO)C(=O)N[C@@H](Cc1ccccc1)C(=O)NCc1ccccc1` was tested, and the IC50 was > 10 µM. For `C[C@H](CC(=O)NO)C(=O)N[C@@H](Cc1ccccc1)C(=O)NCc1ccccc1`, the IC50 was > 10 µM. `O=C(C[C@H](C(=O)N[C@@H](Cc1ccccc1)C(=O)NCc1ccccc1)c1ccccc1)NO` gave an IC50 of 17 µM. For `CC(C)C[C@@H](CC(=O)NO)C(=O)N[C@@H](Cc1ccccc1)C(=O)NCc1ccccc1`, the IC50 was > 10 µM. With `O=C(C[C@H](C(=O)N[C@@H](Cc1ccccc1)C(=O)NCc1ccccc1)c1cccc2ccccc12)NO` the IC50 was > 10 µM. `O=C(C[C@@H](Cc1ccc2ccccc2c1)C(=O)N[C@@H](Cc1ccccc1)C(=O)NCc1ccccc1)NO` was tested, and the IC50 was > 10 µM. In the case of `O=C(C[C@@H](CCc1ccccc1)C(=O)N[C@@H](Cc1ccccc1)C(=O)NCc1ccccc1)NO`, the IC50 is reported as 4.1 µM. `O=C(C[C@H](C(=O)N[C@@H](Cc1ccccc1)C(=O)NCc1ccccc1)C1CCCCC1)NO` was tested, and the IC50 was 1.5 µM. For `O=C(C[C@H](C(=O)N[C@@H](Cc1ccccc1)C(=O)NCc1ccccc1)c1ccc(-c2ccccc2)cc1)NO`, the IC50 was > 10 µM. Compound `O=C(C[C@@H](Cc1ccccc1)C(=O)N[C@@H](Cc1ccccc1)C(=O)NCc1ccccc1)NO` has an IC50 of 7 µM. In the case of `O=C(C[C@@H](CC1CCCCC1)C(=O)N[C@@H](Cc1ccccc1)C(=O)NCc1ccccc1)NO`, the IC50 is reported as 4.6 µM. Work on `CC(C)S[C@H](CC(=O)NO)C(=O)N[C@@H](Cc1ccccc1)C(=O)NCc1ccccc1` yielded an IC50 of 1.9 µM. In the case of `O=C(C[C@@H](CC1CCCC1)C(=O)N[C@@H](Cc1ccccc1)C(=O)NCc1ccccc1)NO`, the IC50 is reported as 0.02 µM. With `O=C(CCC(=O)N[C@@H](Cc1ccccc1)C(=O)NCc1ccccc1)NO` the IC50 was > 10 µM. With `CC(C)C[C@H](CC(=O)NO)C(=O)N[C@@H](Cc1ccccc1)C(=O)NCc1ccccc1` the IC50 was 0.03 µM.
